Assay results reported in patent publication US11178873B2, “Cyclic N-carboxamide compounds useful as herbicides” (FMC CORPORATION, priority 2015, dated 2021).

Key:
Assay type in all cases: in vivo
[1] = system: barnyardgrass (Echinochloa crus-galli); assay: Test A preemergence, barnyardgrass; details: 0 to 100 scale, 0 no effect, 100 complete control
Text: (§1) Seeds of plant species selected from barnyardgrass (Echinochloa crus-galli), crabgrass, large (large crabgrass, Digitaria sanguinalis), kochia (Kochia scoparia), ragweed (common ragweed, Ambrosia elatior), morningglory (Ipomoea spp.), velvetleaf (Abutilon theophrasti), ryegrass, Italian (Italian ryegrass, Lolium multiflorum), foxtail, giant (giant foxtail, Setaria faberii), wheat (Triticum aestivum), corn (Zea mays), and pigweed (Amaranthus retroflexus), were planted into a blend of loam soil and sand and treated preemergence with a directed soil spray using test chemicals formulated in a non-phytotoxic solvent mixture which included a surfactant. At the same time, plants selected from these crop and weed species and also blackgrass (Alopecurus myosuroides), and galium (catchweed bedstraw, Galium aparine), were planted in pots containing the same blend of loam soil and sand and treated with postemergence applications of test chemicals formulated in the same manner. Plants ranged in height from 2 to 10 cm and were in the one- to two-leaf stage for the postemergence treatment. Treated plants and untreated controls were maintained in a greenhouse for approximately 10 d, after which time all treated plants were compared to untreated controls and visually evaluated for injury. Plant response ratings, summarized in Table A, are based on a 0 to 100 scale where 0 is no effect and 100 is complete control. A dash (-) response means no test result.

kochia (Kochia scoparia) [2] = assay: Test A preemergence, kochia; details: 0 to 100 scale, 0 no effect, 100 complete control
Text: as §1

[3] = system: ragweed (common ragweed, Ambrosia elatior); assay: Test A preemergence, ragweed; details: 0 to 100 scale, 0 no effect, 100 complete control
Text: as §1

[4] = system: ryegrass, Italian (Italian ryegrass, Lolium multiflorum); assay: Test A preemergence, ryegrass, Italian; details: 0 to 100 scale, 0 no effect, 100 complete control
Text: as §1

[5] = system: foxtail, giant (giant foxtail, Setaria faberii); assay: Test A preemergence, foxtail, giant; details: 0 to 100 scale, 0 no effect, 100 complete control
Text: as §1

[6] = system: pigweed (Amaranthus retroflexus); assay: Test A preemergence, pigweed; details: 0 to 100 scale, 0 no effect, 100 complete control
Text: as §1

[7] = system: barnyardgrass (Echinochloa crus-galli); assay: Test A postemergence, barnyardgrass; details: 0 to 100 scale, 0 no effect, 100 complete control
Text: as §1

kochia (Kochia scoparia) [8] = assay: Test A postemergence, kochia; details: 0 to 100 scale, 0 no effect, 100 complete control
Text: as §1

[9] = system: ragweed (common ragweed, Ambrosia elatior); assay: Test A postemergence, ragweed; details: 0 to 100 scale, 0 no effect, 100 complete control
Text: as §1

[10] = system: ryegrass, Italian (Italian ryegrass, Lolium multiflorum); assay: Test A postemergence, ryegrass, Italian; details: 0 to 100 scale, 0 no effect, 100 complete control
Text: as §1

[11] = system: foxtail, giant (giant foxtail, Setaria faberii); assay: Test A postemergence, foxtail, giant; details: 0 to 100 scale, 0 no effect, 100 complete control
Text: as §1

[12] = system: wheat (Triticum aestivum); assay: Test A postemergence, wheat; details: 0 to 100 scale, 0 no effect, 100 complete control
Text: as §1

corn (Zea mays) = assay: Test A postemergence, corn; details: 0 to 100 scale, 0 no effect, 100 complete control
Text: as §1

[13] = system: pigweed (Amaranthus retroflexus); assay: Test A postemergence, pigweed; details: 0 to 100 scale, 0 no effect, 100 complete control
Text: as §1

[14] = system: blackgrass (Alopecurus myosuroides); assay: Test A postemergence, blackgrass; details: 0 to 100 scale, 0 no effect, 100 complete control
Text: as §1

[15] = system: galium (catchweed bedstraw, Galium aparine); assay: Test A postemergence, galium; details: 0 to 100 scale, 0 no effect, 100 complete control
Text: as §1

[16] = system: barnyardgrass (Echinochloa crus-galli); assay: Test B flooded paddy test, barnyardgrass; details: Flood, scale 0 to 100 (0 no effect, 100 complete control), 13 to 15 d
Protocol: (§2) Plant species in the flooded paddy test selected from rice (Oryza sativa), sedge, umbrella (small-flower umbrella sedge, Cyperus difformis), ducksalad (Heteranthera limosa), and barnyardgrass (Echinochloa crus-galli) were grown to the 2-leaf stage for testing. At time of treatment, test pots were flooded to 3 cm above the soil surface, treated by application of test compounds directly to the paddy water, and then maintained at that water depth for the duration of the test. Treated plants and controls were maintained in a greenhouse for 13 to 15 d, after which time all species were compared to controls and visually evaluated. Plant response ratings, summarized in Table B, are based on a scale of 0 to 100 where 0 is no effect and 100 is complete control. A dash (-) response means no test result.

[17] = system: ducksalad (Heteranthera limosa); assay: Test B flooded paddy test, ducksalad; details: Flood, scale 0 to 100 (0 no effect, 100 complete control), 13 to 15 d
Protocol: as §2

rice (Oryza sativa) = assay: Test B flooded paddy test, rice; details: Flood, scale 0 to 100 (0 no effect, 100 complete control), 13 to 15 d
Protocol: as §2

[18] = system: sedge, umbrella (small-flower umbrella sedge, Cyperus difformis); assay: Test B flooded paddy test, sedge, umbrella; details: Flood, scale 0 to 100 (0 no effect, 100 complete control), 13 to 15 d
Protocol: as §2

Structure (SMILES) | Plant response rating, Barnyardgrass ([1]; 31 g ai/ha) | Plant response rating, Barnyardgrass ([1]; 125 g ai/ha) | Plant response rating, Kochia (kochia (Kochia scoparia) [2]; 31 g ai/ha) | Plant response rating, Kochia (kochia (Kochia scoparia) [2]; 125 g ai/ha) | Plant response rating, Ragweed ([3]; 31 g ai/ha) | Plant response rating, Ragweed ([3]; 125 g ai/ha) | Plant response rating, Ryegrass, Italian ([4]; 31 g ai/ha) | Plant response rating, Ryegrass, Italian ([4]; 125 g ai/ha) | Plant response rating, Foxtail, Giant ([5]; 125 g ai/ha) | Plant response rating, Pigweed ([6]; 125 g ai/ha) | Plant response rating, Barnyardgrass ([7]; 125 g ai/ha) | Plant response rating, Kochia (kochia (Kochia scoparia) [8]; 125 g ai/ha) | Plant response rating, Ragweed ([9]; 125 g ai/ha) | Plant response rating, Ryegrass, Italian ([10]; 125 g ai/ha) | Plant response rating, Foxtail, Giant ([11]; 125 g ai/ha) | Plant response rating, Wheat ([12]; 125 g ai/ha) | Plant response rating, Corn (corn (Zea mays); 125 g ai/ha) | Plant response rating, Pigweed ([13]; 125 g ai/ha) | Plant response rating, Blackgrass ([14]; 125 g ai/ha) | Plant response rating, Galium ([15]; 125 g ai/ha) | also measured
O=C1CCC(c2ccc(Cl)cc2)N1C(=O)Nc1ccc(F)c(F)c1F (stereo not drawn) [Compound 22] | 0 | 0 | 0 | 0 | 0 | 0 | 0 | 0 | 0 | 0 | 0 | 0 | 0 | 0 | 0 | 0 | 0 | 0 | 0 | 0 | Plant response rating, Foxtail, Giant ([5]; 31 g ai/ha): 0; Plant response rating, Pigweed ([6]; 31 g ai/ha): 0; Plant response rating, Barnyardgrass ([7]; 31 g ai/ha): 0; Plant response rating, Kochia (kochia (Kochia scoparia) [8]; 31 g ai/ha): 0; Plant response rating, Ragweed ([9]; 31 g ai/ha): 0; Plant response rating, Ryegrass, Italian ([10]; 31 g ai/ha): 0; Plant response rating, Foxtail, Giant ([11]; 31 g ai/ha): 0; Plant response rating, Wheat ([12]; 31 g ai/ha): 0; Plant response rating, Corn (corn (Zea mays); 31 g ai/ha): 0; Plant response rating, Pigweed ([13]; 31 g ai/ha): 0; Plant response rating, Blackgrass ([14]; 31 g ai/ha): 0; Plant response rating, Galium ([15]; 31 g ai/ha): 0; Plant response rating, Barnyardgrass ([16]; 250 g ai/ha): 0; Plant response rating, Ducksalad ([17]; 250 g ai/ha): 0; Plant response rating, Rice (rice (Oryza sativa); 250 g ai/ha): 0; Plant response rating, Sedge, Umbrella ([18]; 250 g ai/ha): 0
O=C1NCC(c2ccccc2)N1C(=O)Nc1cccc(F)c1F (stereo not drawn) [Compound 12, N-(2,3-difluorophenyl)-2-oxo-5-phenyl-1-imidazolidinecarboxamide] | – | 20 | – | 0 | – | 0 | – | 0 | 60 | 0 | 60 | 0 | 0 | 0 | 80 | 0 | 0 | 0 | 0 | 0 | Plant response rating, Barnyardgrass ([1]; 500 g ai/ha): 50; Plant response rating, Kochia (kochia (Kochia scoparia) [2]; 500 g ai/ha): 20; Plant response rating, Ragweed ([3]; 500 g ai/ha): 0; Plant response rating, Ryegrass, Italian ([4]; 500 g ai/ha): 0; Plant response rating, Foxtail, Giant ([5]; 500 g ai/ha): 90; Plant response rating, Pigweed ([6]; 500 g ai/ha): 0; Plant response rating, Barnyardgrass ([7]; 500 g ai/ha): 90; Plant response rating, Kochia (kochia (Kochia scoparia) [8]; 500 g ai/ha): 0; Plant response rating, Ragweed ([9]; 500 g ai/ha): 0; Plant response rating, Ryegrass, Italian ([10]; 500 g ai/ha): 0; Plant response rating, Foxtail, Giant ([11]; 500 g ai/ha): 80; Plant response rating, Wheat ([12]; 500 g ai/ha): 0; Plant response rating, Corn (corn (Zea mays); 500 g ai/ha): 0; Plant response rating, Pigweed ([13]; 500 g ai/ha): 0; Plant response rating, Blackgrass ([14]; 500 g ai/ha): 0; Plant response rating, Galium ([15]; 500 g ai/ha): 0; Plant response rating, Barnyardgrass ([16]; 1000 g ai/ha): 0; Plant response rating, Ducksalad ([17]; 1000 g ai/ha): 90; Plant response rating, Rice (rice (Oryza sativa); 1000 g ai/ha): 0; Plant response rating, Sedge, Umbrella ([18]; 1000 g ai/ha): 0
CN1CC(c2cccc(C(F)(F)F)c2)N(C(=O)Nc2cccc(F)c2F)C1=O (stereo not drawn) [Compound 18] | 20 | 70 | 0 | 0 | 0 | 0 | 0 | 0 | 80 | 0 | 30 | 0 | 0 | 0 | 50 | 0 | 0 | 0 | 0 | 0 | Plant response rating, Foxtail, Giant ([5]; 31 g ai/ha): 70; Plant response rating, Pigweed ([6]; 31 g ai/ha): 0; Plant response rating, Barnyardgrass ([7]; 31 g ai/ha): 10; Plant response rating, Kochia (kochia (Kochia scoparia) [8]; 31 g ai/ha): 0; Plant response rating, Ragweed ([9]; 31 g ai/ha): 0; Plant response rating, Ryegrass, Italian ([10]; 31 g ai/ha): 0; Plant response rating, Foxtail, Giant ([11]; 31 g ai/ha): 10; Plant response rating, Wheat ([12]; 31 g ai/ha): 0; Plant response rating, Corn (corn (Zea mays); 31 g ai/ha): 0; Plant response rating, Pigweed ([13]; 31 g ai/ha): 0; Plant response rating, Blackgrass ([14]; 31 g ai/ha): 0; Plant response rating, Galium ([15]; 31 g ai/ha): 0; Plant response rating, Barnyardgrass ([16]; 250 g ai/ha): 0; Plant response rating, Ducksalad ([17]; 250 g ai/ha): 65; Plant response rating, Rice (rice (Oryza sativa); 250 g ai/ha): 0; Plant response rating, Sedge, Umbrella ([18]; 250 g ai/ha): 0
O=C1NCC(c2ccc(F)c(F)c2)N1C(=O)Nc1ccccc1Cl (stereo not drawn) [Compound 9] | – | 0 | – | 0 | – | 0 | – | 0 | 0 | 0 | 0 | 0 | 0 | 0 | 0 | 0 | 0 | 0 | 0 | 0 | Plant response rating, Barnyardgrass ([1]; 500 g ai/ha): 0; Plant response rating, Kochia (kochia (Kochia scoparia) [2]; 500 g ai/ha): 0; Plant response rating, Ragweed ([3]; 500 g ai/ha): 0; Plant response rating, Ryegrass, Italian ([4]; 500 g ai/ha): 0; Plant response rating, Foxtail, Giant ([5]; 500 g ai/ha): 0; Plant response rating, Pigweed ([6]; 500 g ai/ha): 0; Plant response rating, Barnyardgrass ([7]; 500 g ai/ha): 0; Plant response rating, Kochia (kochia (Kochia scoparia) [8]; 500 g ai/ha): 0; Plant response rating, Ragweed ([9]; 500 g ai/ha): 0; Plant response rating, Ryegrass, Italian ([10]; 500 g ai/ha): 0; Plant response rating, Foxtail, Giant ([11]; 500 g ai/ha): 0; Plant response rating, Wheat ([12]; 500 g ai/ha): 0; Plant response rating, Corn (corn (Zea mays); 500 g ai/ha): 0; Plant response rating, Pigweed ([13]; 500 g ai/ha): 0; Plant response rating, Blackgrass ([14]; 500 g ai/ha): 0; Plant response rating, Galium ([15]; 500 g ai/ha): 0; Plant response rating, Barnyardgrass ([16]; 500 g ai/ha): 0; Plant response rating, Ducksalad ([17]; 500 g ai/ha): 0; Plant response rating, Rice (rice (Oryza sativa); 500 g ai/ha): 0; Plant response rating, Sedge, Umbrella ([18]; 500 g ai/ha): 0
